# Experimental data reported in patent publication US12187742B2 (XRAD Therapeutics, Inc., priority 2018, dated 2025).
# Where a name gives a salt, the structure may show the parent alone.
# Target: ATM (Homo sapiens (Human), UniProt Q13315)
# Test: ATM in Cell Western Assay (pKAP1 in etoposide-treated MCF-7 cells)
# Format: cell-based
# Conditions: pKAP1 in etoposide-treated MCF-7 cells
# Summary of the method: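 Cells received compounds in a 10-dose, 3-fold series from a 1 μM final top concentration, then 100 μM etoposide, for 1 hr at 37° C. They were then fixed with paraformaldehyde and permeabilized with 0.1% Triton X-100. After immunostaining, plates were scanned on an infrared imager.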
# Sequence of ATM (Q13315 whole entry): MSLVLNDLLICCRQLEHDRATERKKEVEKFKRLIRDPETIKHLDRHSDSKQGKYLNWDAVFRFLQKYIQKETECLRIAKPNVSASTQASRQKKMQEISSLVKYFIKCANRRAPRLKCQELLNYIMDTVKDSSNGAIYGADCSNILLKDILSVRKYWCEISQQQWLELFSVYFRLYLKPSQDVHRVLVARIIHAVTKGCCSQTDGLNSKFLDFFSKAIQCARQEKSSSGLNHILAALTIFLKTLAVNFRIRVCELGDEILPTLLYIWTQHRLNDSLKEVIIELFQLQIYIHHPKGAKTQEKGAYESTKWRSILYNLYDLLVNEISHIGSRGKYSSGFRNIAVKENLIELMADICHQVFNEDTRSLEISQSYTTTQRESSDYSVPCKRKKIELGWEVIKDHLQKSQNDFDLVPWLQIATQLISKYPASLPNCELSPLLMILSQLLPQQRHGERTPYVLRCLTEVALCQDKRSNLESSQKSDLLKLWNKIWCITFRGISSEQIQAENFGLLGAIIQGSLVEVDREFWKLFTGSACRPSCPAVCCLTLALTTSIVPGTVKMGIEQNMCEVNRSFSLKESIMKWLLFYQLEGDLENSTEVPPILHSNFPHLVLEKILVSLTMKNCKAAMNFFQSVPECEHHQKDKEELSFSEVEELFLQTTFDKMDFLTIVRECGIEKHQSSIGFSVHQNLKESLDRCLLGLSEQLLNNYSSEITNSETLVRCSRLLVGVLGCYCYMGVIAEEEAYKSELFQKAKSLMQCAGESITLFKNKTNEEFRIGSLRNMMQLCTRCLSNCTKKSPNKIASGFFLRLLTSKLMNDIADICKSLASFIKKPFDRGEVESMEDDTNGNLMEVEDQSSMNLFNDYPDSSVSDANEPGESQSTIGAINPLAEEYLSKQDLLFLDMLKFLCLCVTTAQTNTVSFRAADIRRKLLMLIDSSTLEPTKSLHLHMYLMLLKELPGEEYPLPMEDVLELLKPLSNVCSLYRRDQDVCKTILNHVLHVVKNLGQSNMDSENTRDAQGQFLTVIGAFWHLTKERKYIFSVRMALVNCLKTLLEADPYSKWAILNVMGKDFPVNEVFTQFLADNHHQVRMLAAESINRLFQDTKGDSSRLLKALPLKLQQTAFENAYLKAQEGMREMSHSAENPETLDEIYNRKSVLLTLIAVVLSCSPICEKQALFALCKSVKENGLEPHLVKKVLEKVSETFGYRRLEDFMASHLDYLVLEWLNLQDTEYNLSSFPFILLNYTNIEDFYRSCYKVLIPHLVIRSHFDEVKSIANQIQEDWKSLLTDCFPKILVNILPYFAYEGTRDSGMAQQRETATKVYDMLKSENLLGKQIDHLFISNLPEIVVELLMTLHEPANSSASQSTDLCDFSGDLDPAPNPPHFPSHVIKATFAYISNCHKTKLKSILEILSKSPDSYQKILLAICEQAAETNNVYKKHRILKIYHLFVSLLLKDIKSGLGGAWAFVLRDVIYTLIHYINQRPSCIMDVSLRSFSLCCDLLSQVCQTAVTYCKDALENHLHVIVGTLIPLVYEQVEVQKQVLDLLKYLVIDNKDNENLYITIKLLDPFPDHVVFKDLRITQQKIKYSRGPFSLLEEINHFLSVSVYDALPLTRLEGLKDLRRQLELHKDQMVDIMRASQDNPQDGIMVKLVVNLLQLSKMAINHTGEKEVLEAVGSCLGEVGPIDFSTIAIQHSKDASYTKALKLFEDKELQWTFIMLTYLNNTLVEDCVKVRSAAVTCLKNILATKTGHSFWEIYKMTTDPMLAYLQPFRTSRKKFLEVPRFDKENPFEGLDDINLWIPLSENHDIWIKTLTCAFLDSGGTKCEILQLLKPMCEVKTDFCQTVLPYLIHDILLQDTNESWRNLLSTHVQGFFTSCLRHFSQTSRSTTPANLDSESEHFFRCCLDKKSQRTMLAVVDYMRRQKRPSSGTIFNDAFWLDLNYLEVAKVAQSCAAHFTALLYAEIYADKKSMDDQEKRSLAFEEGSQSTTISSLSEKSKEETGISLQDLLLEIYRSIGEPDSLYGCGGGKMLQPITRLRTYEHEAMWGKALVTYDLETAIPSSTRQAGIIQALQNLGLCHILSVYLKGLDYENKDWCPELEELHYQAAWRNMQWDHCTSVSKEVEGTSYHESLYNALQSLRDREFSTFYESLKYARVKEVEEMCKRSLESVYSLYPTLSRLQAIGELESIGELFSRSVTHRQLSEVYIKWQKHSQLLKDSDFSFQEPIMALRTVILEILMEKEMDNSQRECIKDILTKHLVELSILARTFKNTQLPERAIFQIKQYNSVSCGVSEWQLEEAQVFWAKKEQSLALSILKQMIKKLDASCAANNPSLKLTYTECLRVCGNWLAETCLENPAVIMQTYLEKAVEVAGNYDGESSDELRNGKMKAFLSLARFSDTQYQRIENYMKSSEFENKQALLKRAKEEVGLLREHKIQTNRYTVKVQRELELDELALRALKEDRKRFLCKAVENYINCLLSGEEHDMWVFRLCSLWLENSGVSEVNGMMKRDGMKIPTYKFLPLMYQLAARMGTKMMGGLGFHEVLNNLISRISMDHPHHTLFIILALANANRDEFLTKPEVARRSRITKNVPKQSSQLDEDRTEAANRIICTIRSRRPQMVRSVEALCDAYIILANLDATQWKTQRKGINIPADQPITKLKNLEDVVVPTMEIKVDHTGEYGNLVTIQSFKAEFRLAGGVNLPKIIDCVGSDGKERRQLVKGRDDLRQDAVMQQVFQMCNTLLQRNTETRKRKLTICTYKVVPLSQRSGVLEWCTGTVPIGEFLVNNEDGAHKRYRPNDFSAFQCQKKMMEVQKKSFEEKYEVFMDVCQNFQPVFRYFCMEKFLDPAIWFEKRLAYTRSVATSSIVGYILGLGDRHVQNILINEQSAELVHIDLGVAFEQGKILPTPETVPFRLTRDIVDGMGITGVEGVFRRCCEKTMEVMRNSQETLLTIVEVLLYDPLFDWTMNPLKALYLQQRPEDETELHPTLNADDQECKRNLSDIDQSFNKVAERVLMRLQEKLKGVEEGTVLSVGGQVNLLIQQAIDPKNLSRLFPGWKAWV
row,SMILES,IC50 [nM]
1,"CN1C(=O)C2(CCC2)c2c1cnc1ccc(-c3cnc(N4CCC(N(C)C)C4)c(NS(C)(=O)=O)c3)cc21 (racemic) [Example 351, (rac)-N-(2-(3-(Dimethylamino)pyrrolidin-1-yl)-5-(3′-methyl-2′-oxo-2′,3′-dihydrospiro[cyclobutane-1,1′-pyrrolo[2,3-c]quinolin]-8′-yl)pyridin-3-yl)methanesulfonamide]",1 to 100
2,"COc1ccc(N2CC3(C2)C(=O)N(C)c2cnc4cc(F)c(-c5cnc(OCCNC(C)C)c(NS(C)(=O)=O)c5)cc4c23)cc1OC [Example 546, N-(5-(1-(3,4-Dimethoxyphenyl)-7′-fluoro-3′-methyl-2′-oxo-2′,3′-dihydrospiro[azetidine-3,1′-pyrrolo[2,3-c]quinolin]-8′-yl)-2-(2-(isopropylamino)ethoxy)pyridin-3-yl)methanesulfonamide]",1 to 100
3,"CC(C)NCCOc1ncc(-c2cc3c4c(cnc3cc2F)N(C)C(=O)C42CN(c3ccncc3)C2)cc1NS(C)(=O)=O [Example 547, N-(5-(7′-Fluoro-3′-methyl-2′-oxo-1-(pyridin-4-yl)-2′,3′-dihydrospiro [azetidine-3,1′-pyrrolo[2,3-c]quinolin]-8′-yl)-2-(2-(isopropylamino)ethoxy)pyridin-3-yl)methanesulfonamide]",> 100
4,"CC(C)NCCOc1ncc(-c2cc3c4c(cnc3cc2F)N(C)C(=O)C42CN(c3cccnc3)C2)cc1NS(C)(=O)=O [Example 548, N-(5-(7′-Fluoro-3′-methyl-2′-oxo-1-(pyridin-3-yl)-2′,3′-dihydrospiro [azetidine-3,1′-pyrrolo[2,3-c]quinolin]-8′-yl)-2-(2-(isopropylamino)ethoxy)pyridin-3-yl)methanesulfonamide hydrochloride]",1 to 100
5,"CC(C)NCCOc1ncc(-c2cc3c4c(cnc3cc2F)N(C)C(=O)C42CN(c3cncnc3)C2)cc1NS(C)(=O)=O [Example 549, N-(5-(7′-Fluoro-3′-methyl-2′-oxo-1-(pyrimidin-5-yl)-2′,3′-dihydrospiro[azetidine-3,1′-pyrrolo[2,3-c]quinolin]-8′-yl)-2-(2-(isopropylamino)ethoxy)pyridin-3-yl)methanesulfonamide]",> 100
6,"CC(C)NCCOc1ncc(-c2cc3c4c(cnc3cc2F)N(C)C(=O)C42CN(c3nn[nH]n3)C2)cc1NS(C)(=O)=O [Example 550, N-(5-(7′-Fluoro-3′-methyl-2′-oxo-1-(2H-tetrazol-5-yl)-2′,3′-dihydrospiro [azetidine-3,1′-pyrrolo[2,3-c]quinolin]-8′-yl)-2-(2-(isopropylamino)ethoxy)pyridin-3-yl)methanesulfonamide]",> 100
7,"CC(C)NCCOc1ncc(-c2cc3c4c(cnc3cc2F)N(C)C(=O)C42CN(c3ncccn3)C2)cc1NS(C)(=O)=O [Example 551, N-(5-(7′-Fluoro-3′-methyl-2′-oxo-1-(pyrimidin-2-yl)-2′,3′-dihydrospiro[azetidine-3,1′-pyrrolo[2,3-c]quinolin]-8′-y))-2-(2-(isopropylamino)ethoxy)pyridin-3-yl)methanesulfonamide hydrochloride]",> 100
8,"CC(C)NCCOc1ncc(-c2cc3c4c(cnc3cc2F)N(C)C(=O)C42CN(c3nnn(C)n3)C2)cc1NS(C)(=O)=O [Example 552, N-(5-(7′-Fluoro-3′-methyl-1-(2-methyl-2H-tetrazol-5-yl)-2′-oxo-2′,3′-dihydrospiro[azetidine-3,1′-pyrrolo[2,3-c]quinolin]-8′-yl)-2-(2-(isopropylamino)ethoxy)pyridin-3-yl)methanesulfonamide]",> 100
9,"CC(C)NCCOc1ncc(-c2cc3c4c(cnc3cc2F)N(C)C(=O)C42CN(c3nnnn3C)C2)cc1NS(C)(=O)=O [Example 553, N-(5-(7′-Fluoro-3′-methyl-1-(1-methyl-1H-tetrazol-5-yl)-2′-oxo-2′,3′-dihydrospiro[azetidine-3,1′-pyrrolo[2,3-c]quinolin]-8′-yl)-2-(2-(isopropylamino)ethoxy)pyridin-3-yl)methanesulfonamide]",> 100
10,"CC(C)NCCOc1ncc(-c2cc3c4c(cnc3cc2F)N(C)C(=O)C42COC2)cc1NS(C)(=O)=O [Example 555, N-(5-(7′-Fluoro-3′-methyl-2′-oxo-2′,3′-dihydrospiro[oxetane-3,1′-pyrrolo[2,3-c]quinolin]-8′-yl)-2-(2-(isopropylamino)ethoxy)pyridin-3-yl)methanesulfonamide hydrochloride]",1 to 100
11,"CC(C)NCCOc1ncc(-c2ccc3ncc4c(c3c2F)C2(CCC2)C(=O)N4C)cc1NS(C)(=O)=O [Example 556, N-(5-(9′-Fluoro-3′-methyl-2′-oxo-2′,3′-dihydrospiro[cyclobutane-1,1′-pyrrolo[2,3-c]quinolin]-8′-yl)-2-(2-(isopropylamino)ethoxy)pyridin-3-yl)methanesulfonamide hydrochloride]",1 to 100
12,"CN(C)CCCOc1ncc(-c2cc(F)c3ncc4c(c3c2)C2(CCC2)C(=O)N4C)cc1NS(=O)(=O)N(C)C [Example 557, 8′-{6-[3-(Dimethylamino)propoxy]-5-[(dimethylsulfainoyl)amino]pyridin-3-yl}-6′-fluoro-3′-methyl-2′,3′-dihydrospiro [cyclobutane-1,1′-pyrrolo[2,3-c]quinoline]-2′-one]",1 to 100
13,"CC(C)NCCOc1ncc(-c2cc3c4c(nnc3cc2F)N(C)C(=O)C42CCC2)cc1NS(C)(=O)=O [Example 558, N-(5-(7′-Fluoro-3′-methyl-2′-oxo-2′,3′-dihydrospiro[cyclobutane-1,1′-pyrrolo [2,3-c]cinnolin]-8′-yl)-2-(2-(isopropylamino)ethoxy)pyridin-3-yl)methanesulfonamide]",> 100
14,"COC(=O)c1cc(-c2ccc3ncc4c(c3c2)C2(CCC2)C(=O)N4C)cc(NS(C)(=O)=O)c1OCCCN(C)C [Example 559, Methyl 2-(3-(dimethylamino)propoxy)-5-(3′-methyl-2′-oxo-2′,3′-dihydrospiro[cyclobutane-1,1′-pyrrolo[2,3-c]quinolin]-8′-yl)-3-(methylsulfonamido)benzoate]",> 100
15,"CC(C)NCCOc1ncc(-c2cc3c4c(cnc3cc2F)N(C)C(=O)C42CC(F)C2)cc1NS(C)(=O)=O (stereo not drawn) [Example 560, cis-N-(5-(3,7′-Difluoro-3′-methyl-2′-oxo-2′,3′-dihydrospiro[cyclobutane-1,1′-pyrrolo[2,3-c]quinolin]-8′-yl)-2-(2-(isopropylamino)ethoxy)pyridin-3-yl)methanesulfonamide]",1 to 100
16,"CC(C)NCCOc1ncc(-c2ccc3ncc4c(c3n2)C2(CCC2)C(=O)N4C)cc1NS(C)(=O)=O [Example 561, N-(5-[7-Methyl-8-oxo-7,8-dihydrospiro[cyclobutane-1,9-pyrrolo[2,3-c]1,5-naphthyridin]-2-yl]-2-[2-[(propan-2-yl)amino]ethoxy]pyridin-3-yl) methanesulfonamide]",1 to 100
17,"CC(C)NCCOc1ncc(-c2cc3c4c(cnc3cn2)N(C)C(=O)C42CCC2)cc1NS(C)(=O)=O [Example 562, N-(2-(2-(Isopropylamino)ethoxy)-5-(3′-methyl-2′-oxo-2′,3′-dihydrospiro [cyclobutane-1,1′-pyrrolo[2,3-c] [1,7]naphthyridin]-8′-yl)pyridin-3-yl)methanesulfonamide]",> 100
18,"CN(C)CCCOc1c(C#N)cc(-c2ccc3ncc4c(c3c2)C2(CCC2)C(=O)N4C)cc1NS(C)(=O)=O [Example 563, N-(3-Cyano-2-(3-(dimethylamino)propoxy)-5-(3′-methyl-2′-oxo-2′,3′-dihydrospiro[cyclobutane-1,1′-pyrrolo[2,3-c]quinolin]-8′-yl)phenyl)methanesulfonamide]",1 to 100
19,"CN(C)CCCOc1c(NS(C)(=O)=O)cc(-c2ccc3ncc4c(c3c2)C2(CCC2)C(=O)N4C)cc1C(=O)N(C)C [Example 564, 2-(3-(Dimethylamino)propoxy)-N,N-dimethyl-5-(3′-methyl-2′-oxo-2′,3′-dihydrospiro[cyclobutane-1,1′-pyrrolo[2,3-c]quinolin]-8′-yl)-3-(methylsulfonamido)benzamide]",> 100
20,"CNC(=O)c1cc(-c2ccc3ncc4c(c3c2)C2(CCC2)C(=O)N4C)cc(NS(C)(=O)=O)c1OCCCN(C)C [Example 565, 2-(3-(Dimethylamino)propoxy)-N-methyl-5-(3′-methyl-2′-oxo-2′,3′-dihydrospiro[cyclobutane-1,1′-pyrrolo[2,3-c]quinolin]-8′-yl)-3-(methylsulfonamido)benzamide]",> 100

# Target: DNA-PK (Homo sapiens (Human), UniProt P78527)
# Test: DNA-PK Enzyme-Linked Immunosorbent Assay (phosphorylation of GST-p53 (1-101) peptide)
# Format: biochemical
# Conditions: ELISA, 20 μM ATP
# Method: Assay of Compounds ATM and DNA-PK Inhibition
# remove wash solution, turn plate upside down onto a thin paper towel and centrifuge at 1000 rpm for 1 min to absorb all wash buffer. Clean the bottom of plate with moist lint free paper. Scan plate immediately using ODYSSEY CLx (LI-COR) for the best results. DNA-PK Enzyme-Linked Immunosorbent Assay:
# On day one, coat 96-well plate (ThermoFisher. Cat #: 442404) with GST-p53 (1-101) peptide (purified by Pharmaron, BCS department) by diluting 3 μg of GST-p53 each well with 0.1 M Na2CO3/NaHCO3, pH 9.6. Incubate the plate overnight at 4° C. The second day, remove coating buffer, wash 2× with PBST (1×PBS containing 0.1% Tween-20). Then add DNA-PK enzyme solution (Invitrogen, #PR9107A; the final DNA-PK concentration is 0.1 μg/mL), series dilution compounds (the final top concentration is 100 nM, 3 fold series dilution, with total 10 doses) and ATP solution (the final ATP concentration is 20 μM) to the 96-well plate. Incubate the plate at 25° C. for 1 hour. Then wash 3× with PBST (1×PBS containing 0.1% Tween-20). Block the plate with PBST+ 1% BSA at 4° C. overnight. The third day, wash 4× with PBST (1×PBS containing 0.1% Tween-20). Then add Phospho-p53 primary antibody (cell signaling Technology, #9286, Phospho-p53 (Ser15) (16G8) Mouse mAb) (1/1000) to each well. Seal with plate and incubate the plate for 1 h at 37° C. Wash 4× with PBST (1×PBS containing 0.1% Tween-20), add 100 μL of HRP-linked secondary antibody (Cell signaling Technology, #7076, Anti-mouse IgG, HRP-linked Antibody) (1/1000) to each well. Seal with tape and incubate the plate for 30 min at 37° C. Wash 4× with PBST (1×PBS containing 0.1% Tween-20), add 100 μL of TMB (Cell signaling Technology, #7004) substrate to each well. Seal with tape and incubate the plate for 10 min at 37° C. Then add 100 μL of Stop solution (Cell signaling Technology, #7002) to each well. Read the plate at 450 nm to detect absorption.
row,SMILES,IC50 [nM]
1,"CN1C(=O)C2(CCC2)c2c1cnc1ccc(-c3cnc(N4CCC(N(C)C)C4)c(NS(C)(=O)=O)c3)cc21 (racemic) [Example 351, (rac)-N-(2-(3-(Dimethylamino)pyrrolidin-1-yl)-5-(3′-methyl-2′-oxo-2′,3′-dihydrospiro[cyclobutane-1,1′-pyrrolo[2,3-c]quinolin]-8′-yl)pyridin-3-yl)methanesulfonamide]",1 to 100
